Reference: paper PMC10805800 (Cell Discovery, 2024)

Legend:
Format in all cases: binding
[1] = target: T1, LRRK2 (Leucine-rich repeat kinase 2) (Homo sapiens, UniProt Q5S007); assay: cryo-EM structure at […] Å; also ADP-Glo kinase inhibition (RCKWm)
T1 construct: full-length LRRK2

[2] = target: T2, LRRK2 (Leucine-rich repeat kinase 2) (Homo sapiens, UniProt Q5S007, M1732R); assay: cryo-EM structure at […] Å; also ADP-Glo kinase inhibition
T2 construct: LRRK2^RCKWm (ROC-COR-KIN-WD40, without ARM-ANK-LRR domains)
T2 sequence (Q5S007 1327-2527 M1732R): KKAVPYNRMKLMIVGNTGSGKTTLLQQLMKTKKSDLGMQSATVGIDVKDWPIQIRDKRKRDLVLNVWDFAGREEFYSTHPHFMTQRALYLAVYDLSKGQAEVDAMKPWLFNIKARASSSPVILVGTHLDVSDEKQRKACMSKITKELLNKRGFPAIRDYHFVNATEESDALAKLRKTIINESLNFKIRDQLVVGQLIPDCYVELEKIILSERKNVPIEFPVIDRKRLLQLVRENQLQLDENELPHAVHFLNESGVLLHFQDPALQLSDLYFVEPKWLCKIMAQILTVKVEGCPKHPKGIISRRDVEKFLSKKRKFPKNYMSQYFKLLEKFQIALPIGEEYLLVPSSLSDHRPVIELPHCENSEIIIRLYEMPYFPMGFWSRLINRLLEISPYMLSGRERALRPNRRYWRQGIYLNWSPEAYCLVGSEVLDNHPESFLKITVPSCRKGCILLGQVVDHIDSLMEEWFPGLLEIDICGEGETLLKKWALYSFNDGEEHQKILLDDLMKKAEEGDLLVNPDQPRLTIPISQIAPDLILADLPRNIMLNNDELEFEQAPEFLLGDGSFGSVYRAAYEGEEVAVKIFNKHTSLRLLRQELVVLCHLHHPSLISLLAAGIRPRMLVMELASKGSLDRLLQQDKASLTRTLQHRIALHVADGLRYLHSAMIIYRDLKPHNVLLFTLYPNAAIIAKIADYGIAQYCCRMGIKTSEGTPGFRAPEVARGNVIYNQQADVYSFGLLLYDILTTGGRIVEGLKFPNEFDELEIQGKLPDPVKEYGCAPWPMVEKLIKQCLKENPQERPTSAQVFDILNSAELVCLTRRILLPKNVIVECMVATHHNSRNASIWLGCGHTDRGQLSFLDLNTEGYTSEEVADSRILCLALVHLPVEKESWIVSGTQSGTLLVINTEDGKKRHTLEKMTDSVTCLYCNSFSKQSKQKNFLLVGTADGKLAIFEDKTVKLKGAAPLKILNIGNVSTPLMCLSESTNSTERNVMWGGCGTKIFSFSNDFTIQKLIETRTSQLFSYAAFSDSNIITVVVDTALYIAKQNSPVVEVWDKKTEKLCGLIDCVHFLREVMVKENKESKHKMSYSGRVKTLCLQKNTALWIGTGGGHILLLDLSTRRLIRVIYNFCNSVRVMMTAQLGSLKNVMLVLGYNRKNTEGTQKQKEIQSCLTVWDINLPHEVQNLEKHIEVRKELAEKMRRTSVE

[3] = target: T1, LRRK2 (Leucine-rich repeat kinase 2); assay: cryo-EM structure at […] Å; also ADP-Glo kinase inhibition (RCKWm); remark: listed apart in the source

T1 sequence (Q5S007 whole entry): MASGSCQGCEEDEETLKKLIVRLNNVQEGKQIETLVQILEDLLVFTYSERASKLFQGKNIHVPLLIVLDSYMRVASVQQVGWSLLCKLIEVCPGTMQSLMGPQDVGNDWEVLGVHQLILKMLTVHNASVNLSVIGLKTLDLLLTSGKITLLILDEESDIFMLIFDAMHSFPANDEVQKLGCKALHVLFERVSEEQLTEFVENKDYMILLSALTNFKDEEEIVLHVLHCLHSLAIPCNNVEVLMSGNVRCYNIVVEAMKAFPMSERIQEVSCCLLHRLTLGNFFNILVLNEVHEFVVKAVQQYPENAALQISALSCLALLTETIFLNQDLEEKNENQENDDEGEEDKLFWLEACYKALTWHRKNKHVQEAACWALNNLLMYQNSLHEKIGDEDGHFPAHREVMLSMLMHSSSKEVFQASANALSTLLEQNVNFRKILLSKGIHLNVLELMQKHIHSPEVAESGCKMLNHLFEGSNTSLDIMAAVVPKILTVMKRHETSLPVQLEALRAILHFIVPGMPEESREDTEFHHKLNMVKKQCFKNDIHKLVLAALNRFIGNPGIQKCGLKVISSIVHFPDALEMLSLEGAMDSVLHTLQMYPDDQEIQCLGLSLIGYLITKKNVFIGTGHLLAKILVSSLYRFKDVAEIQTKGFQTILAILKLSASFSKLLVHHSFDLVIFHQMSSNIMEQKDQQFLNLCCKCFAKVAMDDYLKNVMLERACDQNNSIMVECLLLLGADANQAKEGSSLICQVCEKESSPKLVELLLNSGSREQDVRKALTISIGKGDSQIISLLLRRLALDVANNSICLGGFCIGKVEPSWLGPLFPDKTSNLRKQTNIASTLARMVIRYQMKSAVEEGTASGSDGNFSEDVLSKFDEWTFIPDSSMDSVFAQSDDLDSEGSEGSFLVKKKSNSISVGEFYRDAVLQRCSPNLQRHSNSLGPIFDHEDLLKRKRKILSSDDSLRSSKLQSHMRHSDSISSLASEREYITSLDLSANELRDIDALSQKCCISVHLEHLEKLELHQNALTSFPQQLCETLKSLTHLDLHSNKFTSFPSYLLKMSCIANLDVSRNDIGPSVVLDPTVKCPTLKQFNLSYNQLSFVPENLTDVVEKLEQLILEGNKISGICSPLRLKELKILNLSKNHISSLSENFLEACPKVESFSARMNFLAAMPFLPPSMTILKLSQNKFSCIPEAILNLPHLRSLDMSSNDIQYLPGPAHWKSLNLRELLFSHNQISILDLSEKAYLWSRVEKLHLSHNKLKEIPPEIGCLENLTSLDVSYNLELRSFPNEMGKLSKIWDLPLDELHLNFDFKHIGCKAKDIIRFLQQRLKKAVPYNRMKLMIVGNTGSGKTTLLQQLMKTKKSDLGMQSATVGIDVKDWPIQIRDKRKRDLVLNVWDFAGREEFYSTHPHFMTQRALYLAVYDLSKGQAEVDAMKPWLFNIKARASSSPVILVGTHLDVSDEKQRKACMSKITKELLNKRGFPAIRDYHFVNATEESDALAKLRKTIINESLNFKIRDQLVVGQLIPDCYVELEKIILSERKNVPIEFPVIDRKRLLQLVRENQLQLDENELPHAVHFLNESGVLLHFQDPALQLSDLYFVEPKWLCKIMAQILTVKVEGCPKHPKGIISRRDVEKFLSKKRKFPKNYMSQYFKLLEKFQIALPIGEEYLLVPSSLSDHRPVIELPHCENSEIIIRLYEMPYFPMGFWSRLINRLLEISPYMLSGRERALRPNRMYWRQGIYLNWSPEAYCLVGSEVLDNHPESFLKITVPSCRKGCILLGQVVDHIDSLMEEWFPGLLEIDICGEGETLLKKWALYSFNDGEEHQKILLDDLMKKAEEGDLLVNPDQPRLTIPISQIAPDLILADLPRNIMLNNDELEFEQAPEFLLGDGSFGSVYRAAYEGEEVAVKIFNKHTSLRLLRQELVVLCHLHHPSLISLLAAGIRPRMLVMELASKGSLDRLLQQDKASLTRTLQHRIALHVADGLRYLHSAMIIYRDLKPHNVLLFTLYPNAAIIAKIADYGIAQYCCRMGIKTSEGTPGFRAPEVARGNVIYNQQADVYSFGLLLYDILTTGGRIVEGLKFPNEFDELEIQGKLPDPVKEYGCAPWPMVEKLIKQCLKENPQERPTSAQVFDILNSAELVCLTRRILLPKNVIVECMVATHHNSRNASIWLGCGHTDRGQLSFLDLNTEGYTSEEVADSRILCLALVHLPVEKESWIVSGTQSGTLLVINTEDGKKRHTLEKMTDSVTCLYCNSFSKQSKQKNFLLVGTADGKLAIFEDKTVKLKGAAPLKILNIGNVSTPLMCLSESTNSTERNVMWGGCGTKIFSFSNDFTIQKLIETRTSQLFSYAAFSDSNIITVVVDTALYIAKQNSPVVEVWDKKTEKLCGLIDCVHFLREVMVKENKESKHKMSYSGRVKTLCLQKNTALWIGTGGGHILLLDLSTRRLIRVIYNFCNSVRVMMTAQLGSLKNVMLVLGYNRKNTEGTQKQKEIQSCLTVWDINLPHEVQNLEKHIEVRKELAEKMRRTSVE

Cc1ccc(C(=O)Nc2ccc(CN3CCN(C)CC3)c(C(F)(F)F)c2)cc1C#Cc1cnc2[nH]ncc2c1 [GZD-824]
cryo-EM structure at 3.6 Å; also ADP-Glo kinase inhibition (RCKWm) [1]: GZD-824 and ponatinib are analogous compounds and bind to LRRK2 in a similar manner

COc1cc(C(=O)N2CCC(N3CCN(C)CC3)CC2)ccc1Nc1ncc2c(n1)N(C)c1ccccc1C(=O)N2C [LRRK2-IN-1]
cryo-EM structure at 3.5 Å; also ADP-Glo kinase inhibition [2]: 8U7H (LRRK2^RCKWm–GNE-7915) and 8FO7 (LRRK2^RCKWm–LRRK2-IN-1)

CNC(=O)c1cc(Oc2ccc(NC(=O)Nc3cc(C(C)(C)C)nn3-c3ccc4ncccc4c3)c(F)c2)ccn1 [rebastinib]
cryo-EM structure at 3.7 Å; also ADP-Glo kinase inhibition (RCKWm) [3]: 8U8B (LRRK2–rebastinib), 8U8A (LRRK2–ponatinib), 8U7L (LRRK2–GZD-824)
